Experimental data: patent publication US9302999B2, “Substituted triazoles as herbicides” (E. I. DU PONT DE NEMOURS AND COMPANY, priority 2012, dated 2016)

Experiments:
Assay type in all cases: in vivo
[1] = tested on: pigweed (Amaranthus retroflexus); assay: Test A pre-/postemergence: pigweed
Method in brief: (§1)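 Soil medium was loam blended with sand; treatments pre- and postemergence were applied concurrently, postemergence at one- to two-leaf stage. Approximately ten days in greenhouse preceded visual comparison with untreated controls, scored 0 (no effect) to 100 (complete control).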

[2] = tested on: lambsquarters (Chenopodium album); assay: Test C pre-/postemergence: lambsquarters
Method in brief: (§2)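 Preemergence on seeds in loam/sand, postemergence on 2–18 cm (1–4-leaf) plants in peat-based medium; compounds in non-phytotoxic solvent with surfactant. After 13–15 days in greenhouse, visual rating versus controls, 0 (no effect) to 100 (complete control).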

[3] = tested on: large crabgrass (Digitaria sanguinalis); assay: Test C pre-/postemergence: large crabgrass
Method in brief: as §2

[4] = tested on: corn (Zea mays); assay: Test C pre-/postemergence: corn
Method in brief: as §2

[5] = tested on: barnyardgrass (Echinochloa crus-galli); assay: Test A pre-/postemergence: barnyardgrass
Method in brief: as §1

[6] = tested on: crabgrass, large (large crabgrass, Digitaria sanguinalis); assay: Test A pre-/postemergence: crabgrass, large
Method in brief: as §1

[7] = tested on: foxtail, giant (giant foxtail, Setaria faberii); assay: Test C pre-/postemergence: foxtail, giant
Method in brief: as §2

[8] = tested on: blackgrass (Alopecurus myosuroides); assay: Test C pre-/postemergence: blackgrass
Method in brief: as §2

[9] = tested on: wheat (Triticum aestivum); assay: Test A pre-/postemergence: wheat
Method in brief: as §1

[10] = tested on: morningglory (Ipomoea coccinea); assay: Test C pre-/postemergence: morningglory
Method in brief: as §2

[11] = tested on: nutsedge, yellow (yellow nutsedge, Cyperus esculentus); assay: Test C pre-/postemergence: nutsedge, yellow
Method in brief: as §2

[12] = Postemergence, 125 g ai/ha, 0 to 100 scale, 0 is no effect, 100 is complete control
[13] = Postemergence, 500 g ai/ha, visual rating on 0 to 100 scale (0 no effect, 100 complete control), approximately ten days
[14] = Preemergence, 125 g ai/ha, 0 to 100 scale where 0 is no effect and 100 is complete control
[15] = Preemergence, 500 g ai/ha, 0 to 100 scale (0 no effect, 100 complete control)
[16] = Postemergence, 16 g ai/ha, scale 0 to 100, 0 no effect, 100 complete control
[17] = Postemergence, 31 g ai/ha, scale 0 to 100 (0 no effect, 100 complete control)
[18] = Postemergence, 62 g ai/ha, scale 0 to 100 (0 no effect, 100 complete control)
[19] = Postemergence, 125 g ai/ha, scale 0 to 100, 0 no effect, 100 complete control
[20] = Preemergence, 16 g ai/ha, scale 0 (no effect) to 100 (complete control)
[21] = Preemergence, 31 g ai/ha, scale of 0 to 100, 0 is no effect, 100 is complete control
[22] = Preemergence, 62 g ai/ha, scale of 0 to 100, 0 is no effect, 100 is complete control
[23] = Preemergence, 125 g ai/ha, scale 0 to 100, 0 no effect, 100 complete control

FCc1nn(-c2ccc(F)cc2)nc1Oc1ccnc(C(F)(F)F)c1 [Compound 160]
Plant response rating, Pigweed [1, 12]: 100 | Pigweed plant response rating [1, 13]: 100 | Plant response rating, Pigweed [1, 14]: 100 | Plant response rating, Pigweed [1, 15]: 100 | Plant response rating, Lambsquarters [2, 16]: 70 | Plant response rating, Lambsquarters [2, 17]: 80 | Plant response rating, Lambsquarters [2, 18]: 95 | Plant response rating, Lambsquarters [2, 19]: 95 | Plant response rating, Lambsquarters [2, 20]: 95 | Plant response rating, Lambsquarters [2, 21]: 100 | Plant response rating, Lambsquarters [2, 22]: 100 | Plant response rating, Lambsquarters [2, 23]: 100 | Plant response rating, Crabgrass, Large [3, 16]: 20 | Plant response rating, Crabgrass, Large [3, 17]: 25 | Plant response rating, Crabgrass, Large [3, 18]: 35 | Plant response rating, Crabgrass, Large [3, 19]: 40 | Plant response rating, Crabgrass, Large [3, 20]: 90 | Plant response rating, Crabgrass, Large [3, 21]: 100 | Plant response rating, Crabgrass, Large [3, 22]: 100 | Plant response rating, Crabgrass, Large [3, 23]: 100 | Plant response rating, Corn [4, 16]: 15 | Plant response rating, Corn [4, 17]: 15 | Plant response rating, Corn [4, 18]: 20 | Plant response rating, Corn [4, 19]: 25 | Plant response rating, Corn [4, 20]: 5 | Plant response rating, Corn [4, 21]: 5 | Plant response rating, Corn [4, 22]: 5 | Plant response rating, Corn [4, 23]: 5 | Plant response rating, Barnyardgrass [5, 12]: 70 | Barnyardgrass plant response rating [5, 13]: 90 | Plant response rating, Barnyardgrass [5, 14]: 100 | Plant response rating, Barnyardgrass [5, 15]: 100 | Plant response rating, Crabgrass, Large [6, 12]: 90 | Crabgrass, Large plant response rating [6, 13]: 90 | Plant response rating, Crabgrass, Large [6, 14]: 100 | Plant response rating, Crabgrass, Large [6, 15]: 100 | Plant response rating, Foxtail, Giant [7, 16]: 15 | Plant response rating, Foxtail, Giant [7, 17]: 20 | Plant response rating, Foxtail, Giant [7, 19]: 75 | Plant response rating, Foxtail, Giant [7, 20]: 80 | Plant response rating, Foxtail, Giant [7, 21]: 100 | Plant response rating, Foxtail, Giant [7, 22]: 100 | Plant response rating, Foxtail, Giant [7, 23]: 100 | Plant response rating, Blackgrass [8, 16]: 25 | Plant response rating, Blackgrass [8, 17]: 35 | Plant response rating, Blackgrass [8, 18]: 45 | Plant response rating, Blackgrass [8, 19]: 65 | Plant response rating, Blackgrass [8, 20]: 0 | Plant response rating, Blackgrass [8, 21]: 40 | Plant response rating, Blackgrass [8, 22]: 90 | Plant response rating, Blackgrass [8, 23]: 90 | Plant response rating, Wheat [9, 12]: 40 | Wheat plant response rating [9, 13]: 50 | Plant response rating, Wheat [9, 14]: 30 | Plant response rating, Wheat [9, 15]: 50 | Plant response rating, Morningglory [10, 16]: 60 | Plant response rating, Morningglory [10, 17]: 60 | Plant response rating, Morningglory [10, 18]: 98 | Plant response rating, Morningglory [10, 19]: 98 | Plant response rating, Morningglory [10, 20]: 0 | Plant response rating, Morningglory [10, 21]: 5 | Plant response rating, Morningglory [10, 22]: 15 | Plant response rating, Morningglory [10, 23]: 20 | Plant response rating, Nutsedge, Yellow [11, 16]: 5 | Plant response rating, Nutsedge, Yellow [11, 17]: 10 | Plant response rating, Nutsedge, Yellow [11, 18]: 10 | Plant response rating, Nutsedge, Yellow [11, 19]: 15 | Plant response rating, Nutsedge, Yellow [11, 20]: 0 | Plant response rating, Nutsedge, Yellow [11, 21]: 0 | Plant response rating, Nutsedge, Yellow [11, 22]: 0 | Plant response rating, Nutsedge, Yellow [11, 23]: 0
